Experimental findings from ChEMBL document CHEMBL1909046, “DrugMatrix in vitro pharmacology data” are described below.

In assay [1] the target is T1, Alpha-2C adrenergic receptor (Homo sapiens, UniProt P18825).
T1 sequence (P18825 whole entry): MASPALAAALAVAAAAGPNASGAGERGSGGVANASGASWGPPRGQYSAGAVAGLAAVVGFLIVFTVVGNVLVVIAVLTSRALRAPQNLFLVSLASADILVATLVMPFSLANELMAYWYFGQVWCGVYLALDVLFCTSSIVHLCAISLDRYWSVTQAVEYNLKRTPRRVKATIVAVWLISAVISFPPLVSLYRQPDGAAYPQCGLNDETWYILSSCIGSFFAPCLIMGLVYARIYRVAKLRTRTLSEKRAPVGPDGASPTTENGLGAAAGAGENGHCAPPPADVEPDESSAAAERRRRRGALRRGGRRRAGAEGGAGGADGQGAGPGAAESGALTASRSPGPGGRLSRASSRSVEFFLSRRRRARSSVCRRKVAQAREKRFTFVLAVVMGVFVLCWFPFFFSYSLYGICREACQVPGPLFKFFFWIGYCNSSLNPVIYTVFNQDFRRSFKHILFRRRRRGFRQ
Nature of the assay: DRUGMATRIX: Adrenergic Alpha-2C radioligand binding (ligand: [3H] MK-912). The class given is cell membranes, Sf9, Membrane. As to conditions: sf9.

The nature of assay [2]: DRUGMATRIX: Atrial Natriuretic Factor (ANF) radioligand binding (ligand: [125I] ANF (rat)). As to conditions: Not Active = under 50% inhibition at 10 µM. The class given is cell membranes, Cavia porcellus, Dunkin-Hartley, Adrenal gland, Membrane.
Assay [3] is described as follows: DRUGMATRIX: Sigma2 radioligand binding (ligand: [3H] Ifenprodil). The format is cell membranes, Rattus norvegicus, Wistar, Brain, Membrane. The note with it: Not Active = under 50% inhibition at 10 µM.
In assay [4] the target is T2, Thromboxane-A synthase (Homo sapiens, UniProt P24557).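 Further: enzyme inhibition assay with PGH2 supplied as substrate; in other assays of this panel Not Active means under 50% inhibition at 10 µM.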
T2 sequence (P24557 whole entry): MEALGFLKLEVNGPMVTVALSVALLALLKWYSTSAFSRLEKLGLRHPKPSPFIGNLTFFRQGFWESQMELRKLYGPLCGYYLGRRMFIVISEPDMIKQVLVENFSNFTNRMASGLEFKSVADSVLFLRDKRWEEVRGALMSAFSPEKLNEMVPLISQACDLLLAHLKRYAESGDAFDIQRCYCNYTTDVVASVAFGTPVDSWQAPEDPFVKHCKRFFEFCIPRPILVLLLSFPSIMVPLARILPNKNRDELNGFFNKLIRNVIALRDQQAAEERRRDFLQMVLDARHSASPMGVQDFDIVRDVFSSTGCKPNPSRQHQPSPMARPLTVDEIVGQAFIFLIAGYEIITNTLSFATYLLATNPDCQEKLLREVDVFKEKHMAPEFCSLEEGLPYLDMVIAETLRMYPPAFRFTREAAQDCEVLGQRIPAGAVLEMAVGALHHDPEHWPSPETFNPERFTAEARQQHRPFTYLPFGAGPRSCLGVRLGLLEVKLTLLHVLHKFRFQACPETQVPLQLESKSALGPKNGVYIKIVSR
Put plainly: biochemical. The format is tissue-based, Platelet. The note with it: platelet.

In assay [5] the target is Vascular endothelial growth factor receptor 1 (Homo sapiens, UniProt P17948). The class given is cell-based. As to conditions: huvec. Further: in other assays of this panel Not Active means under 50% inhibition at 10 µM.
In assay [6] the target is Carbonic anhydrase 2 (Homo sapiens, UniProt P00918). Nature of the assay: DRUGMATRIX: Carbonic Anhydrase II enzyme inhibition (substrate: 4-Nitrophenyl acetate (4-NPA)). The format is tissue-based, Erythrocyte. As to conditions: erythrocyte; Not Active = under 50% inhibition at 10 µM.
Assay [7] concerns the target C-C chemokine receptor type 5 (Homo sapiens, UniProt P51681). The class given is cell membranes, Membrane. As to conditions: hek293. Further: in other assays of this panel Not Active means under 50% inhibition at 10 µM.
The target in assay [8] is T3, D(4) dopamine receptor (Homo sapiens, UniProt P21917).
T3 sequence (P21917 whole entry): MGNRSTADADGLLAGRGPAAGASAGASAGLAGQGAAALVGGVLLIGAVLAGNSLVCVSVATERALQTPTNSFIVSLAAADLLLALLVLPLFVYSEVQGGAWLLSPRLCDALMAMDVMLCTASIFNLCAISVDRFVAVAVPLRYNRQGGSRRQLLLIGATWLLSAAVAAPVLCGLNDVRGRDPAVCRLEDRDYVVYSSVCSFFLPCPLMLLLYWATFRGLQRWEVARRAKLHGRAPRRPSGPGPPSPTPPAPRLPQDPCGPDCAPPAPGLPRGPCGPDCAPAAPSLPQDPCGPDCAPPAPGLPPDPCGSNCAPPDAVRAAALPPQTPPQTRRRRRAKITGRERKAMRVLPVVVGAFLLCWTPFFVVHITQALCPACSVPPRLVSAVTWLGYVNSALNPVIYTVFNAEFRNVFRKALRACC
Nature of the assay: DRUGMATRIX: Dopamine D4.2 radioligand binding (ligand: [3H] Spiperone). As to conditions: cho-k1; Not Active = under 50% inhibition at 10 µM. The format is cell membranes, CHO-K1, Membrane.

Assay [9] has as its target Sodium-dependent dopamine transporter (Homo sapiens, UniProt Q01959). Put plainly: DRUGMATRIX: Dopamine Transporter radioligand binding (ligand: [125I] RTI-55). The class given is cell membranes, CHO-K1, Membrane. The note with it: cho-k1, Not Active = under 50% inhibition at 10 µM.
The target of assay [10] is Glycine receptor (Rattus norvegicus, UniProt P22771+P24524+P07727+P20781). The format is cell membranes, Wistar, Spinal cord, Membrane. Further: in other assays of this panel Not Active means under 50% inhibition at 10 µM.
The nature of assay [11]: DRUGMATRIX: Imidazoline I2, Central radioligand binding (ligand: [3H] Idazoxan). The class given is cell membranes, Rattus norvegicus, Wistar, Cerebral cortex, Membrane. As to conditions: Not Active = under 50% inhibition at 10 µM.
Assay [12] in a line: DRUGMATRIX: Leukotriene, BLT (LTB4) radioligand binding (ligand: [3H]LTB4). The format is cell membranes, Membrane. The note with it: u-937; Not Active = under 50% inhibition at 10 µM.
Assay [13] concerns the target Nitric oxide synthase 1 (Rattus norvegicus, UniProt P29476). The format is tissue-based, Cerebellum. Further: in other assays of this panel Not Active means under 50% inhibition at 10 µM.
Assay [14] has as its target T4, Caspase-1 (Homo sapiens, UniProt P29466).
T4 sequence (P29466 whole entry): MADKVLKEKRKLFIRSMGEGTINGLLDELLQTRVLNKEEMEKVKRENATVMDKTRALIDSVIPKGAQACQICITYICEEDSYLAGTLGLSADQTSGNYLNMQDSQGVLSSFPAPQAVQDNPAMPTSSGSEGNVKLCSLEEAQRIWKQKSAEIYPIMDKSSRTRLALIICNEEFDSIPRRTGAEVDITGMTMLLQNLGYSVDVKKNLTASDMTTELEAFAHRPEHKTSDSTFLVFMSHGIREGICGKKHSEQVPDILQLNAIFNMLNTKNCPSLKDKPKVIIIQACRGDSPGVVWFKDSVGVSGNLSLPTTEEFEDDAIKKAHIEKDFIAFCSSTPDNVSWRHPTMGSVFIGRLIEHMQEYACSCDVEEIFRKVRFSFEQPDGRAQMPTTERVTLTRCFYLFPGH
The arrangement: species or system Escherichia coli.

As usually defined, the pIC50 is −log10 of the IC50, conventionally taken in molar units. A word on the pKi: it is the Ki on a negative log10 scale, so that one unit is a factor of ten.

pIC50, pKi: −log10 of the molar value.

Chain of C-C chemokine receptor type 5 (P51681 whole entry): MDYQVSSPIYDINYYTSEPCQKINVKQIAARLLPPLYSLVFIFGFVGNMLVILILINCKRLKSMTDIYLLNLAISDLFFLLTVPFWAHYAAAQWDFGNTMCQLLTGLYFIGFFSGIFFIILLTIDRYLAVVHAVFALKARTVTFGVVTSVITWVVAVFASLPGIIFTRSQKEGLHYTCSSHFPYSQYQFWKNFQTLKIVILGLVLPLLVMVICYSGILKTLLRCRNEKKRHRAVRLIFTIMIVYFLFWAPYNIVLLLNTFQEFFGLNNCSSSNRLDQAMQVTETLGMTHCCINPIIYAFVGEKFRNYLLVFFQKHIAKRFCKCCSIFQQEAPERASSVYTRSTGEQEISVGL
Chain of Nitric oxide synthase 1 (P29476 whole entry): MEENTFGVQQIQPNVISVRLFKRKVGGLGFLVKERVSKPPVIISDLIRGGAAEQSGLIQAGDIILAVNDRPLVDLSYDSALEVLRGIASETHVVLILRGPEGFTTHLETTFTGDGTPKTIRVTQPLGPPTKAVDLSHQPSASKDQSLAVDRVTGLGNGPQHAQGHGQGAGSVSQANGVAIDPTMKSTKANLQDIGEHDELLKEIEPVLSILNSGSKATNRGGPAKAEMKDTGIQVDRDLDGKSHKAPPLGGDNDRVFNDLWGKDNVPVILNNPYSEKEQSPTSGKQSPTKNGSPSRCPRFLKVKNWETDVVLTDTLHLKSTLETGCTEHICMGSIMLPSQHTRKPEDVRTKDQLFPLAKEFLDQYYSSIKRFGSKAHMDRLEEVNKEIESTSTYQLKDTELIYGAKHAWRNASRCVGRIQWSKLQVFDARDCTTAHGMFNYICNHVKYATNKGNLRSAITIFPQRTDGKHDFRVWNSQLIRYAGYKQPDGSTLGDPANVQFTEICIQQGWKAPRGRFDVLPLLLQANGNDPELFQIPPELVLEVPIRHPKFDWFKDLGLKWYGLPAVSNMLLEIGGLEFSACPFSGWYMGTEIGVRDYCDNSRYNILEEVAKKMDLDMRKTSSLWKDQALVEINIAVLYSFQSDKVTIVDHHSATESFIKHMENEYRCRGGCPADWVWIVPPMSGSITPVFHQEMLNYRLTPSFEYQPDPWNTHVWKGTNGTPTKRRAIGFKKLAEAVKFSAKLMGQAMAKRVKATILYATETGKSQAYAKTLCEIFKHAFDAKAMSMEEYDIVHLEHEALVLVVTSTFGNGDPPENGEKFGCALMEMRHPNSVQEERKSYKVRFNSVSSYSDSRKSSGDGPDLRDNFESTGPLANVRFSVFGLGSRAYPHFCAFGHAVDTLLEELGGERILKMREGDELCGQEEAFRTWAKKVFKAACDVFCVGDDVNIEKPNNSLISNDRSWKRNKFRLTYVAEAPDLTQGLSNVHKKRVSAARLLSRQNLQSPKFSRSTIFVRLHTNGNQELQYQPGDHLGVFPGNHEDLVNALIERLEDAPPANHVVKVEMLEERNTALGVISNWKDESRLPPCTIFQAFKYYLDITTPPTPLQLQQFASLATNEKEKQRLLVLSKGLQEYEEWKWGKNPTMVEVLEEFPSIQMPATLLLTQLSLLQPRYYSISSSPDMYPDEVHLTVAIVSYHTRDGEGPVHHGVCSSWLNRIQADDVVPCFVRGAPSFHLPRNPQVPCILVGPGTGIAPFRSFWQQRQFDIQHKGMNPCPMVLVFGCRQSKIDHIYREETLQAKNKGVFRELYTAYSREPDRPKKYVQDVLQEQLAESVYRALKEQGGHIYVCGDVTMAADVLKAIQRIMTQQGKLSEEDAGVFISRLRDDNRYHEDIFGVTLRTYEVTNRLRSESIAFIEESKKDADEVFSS
Chain of Vascular endothelial growth factor receptor 1 (P17948 whole entry): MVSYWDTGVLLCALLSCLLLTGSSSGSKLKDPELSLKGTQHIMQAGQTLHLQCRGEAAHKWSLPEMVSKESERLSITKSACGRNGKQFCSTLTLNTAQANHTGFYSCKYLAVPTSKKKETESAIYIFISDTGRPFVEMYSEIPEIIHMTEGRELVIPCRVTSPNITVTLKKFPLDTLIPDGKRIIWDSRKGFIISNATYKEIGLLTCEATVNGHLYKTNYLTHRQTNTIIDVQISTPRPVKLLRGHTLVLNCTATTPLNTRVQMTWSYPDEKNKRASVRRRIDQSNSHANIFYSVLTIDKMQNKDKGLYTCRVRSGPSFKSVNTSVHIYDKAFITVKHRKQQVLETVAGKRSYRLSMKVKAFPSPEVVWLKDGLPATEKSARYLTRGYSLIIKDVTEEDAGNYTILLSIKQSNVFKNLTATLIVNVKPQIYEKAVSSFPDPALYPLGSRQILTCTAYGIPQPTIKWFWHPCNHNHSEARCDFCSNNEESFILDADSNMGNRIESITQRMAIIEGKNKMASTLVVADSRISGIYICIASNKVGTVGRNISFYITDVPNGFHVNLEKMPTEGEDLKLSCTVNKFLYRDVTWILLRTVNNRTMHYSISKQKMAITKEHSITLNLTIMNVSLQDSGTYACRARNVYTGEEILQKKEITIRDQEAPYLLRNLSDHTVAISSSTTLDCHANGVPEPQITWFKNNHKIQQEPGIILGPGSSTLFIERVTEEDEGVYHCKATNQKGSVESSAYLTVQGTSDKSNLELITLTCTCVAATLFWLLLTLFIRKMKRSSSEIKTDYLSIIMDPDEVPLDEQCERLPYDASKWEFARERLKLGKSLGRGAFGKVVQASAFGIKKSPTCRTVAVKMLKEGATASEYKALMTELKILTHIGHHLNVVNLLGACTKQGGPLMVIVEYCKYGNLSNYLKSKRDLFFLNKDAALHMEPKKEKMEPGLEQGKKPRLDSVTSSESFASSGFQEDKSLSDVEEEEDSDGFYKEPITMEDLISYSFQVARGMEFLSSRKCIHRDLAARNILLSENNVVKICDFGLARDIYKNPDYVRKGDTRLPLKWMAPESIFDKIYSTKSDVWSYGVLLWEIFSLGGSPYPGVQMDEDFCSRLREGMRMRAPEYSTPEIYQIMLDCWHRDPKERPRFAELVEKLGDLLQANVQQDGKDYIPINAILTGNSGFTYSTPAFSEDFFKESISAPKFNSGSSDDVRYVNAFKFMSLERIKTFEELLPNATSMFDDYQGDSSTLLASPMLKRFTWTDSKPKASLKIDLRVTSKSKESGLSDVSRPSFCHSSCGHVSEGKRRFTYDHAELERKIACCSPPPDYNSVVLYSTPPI
Chain of Sodium-dependent dopamine transporter (Q01959 whole entry): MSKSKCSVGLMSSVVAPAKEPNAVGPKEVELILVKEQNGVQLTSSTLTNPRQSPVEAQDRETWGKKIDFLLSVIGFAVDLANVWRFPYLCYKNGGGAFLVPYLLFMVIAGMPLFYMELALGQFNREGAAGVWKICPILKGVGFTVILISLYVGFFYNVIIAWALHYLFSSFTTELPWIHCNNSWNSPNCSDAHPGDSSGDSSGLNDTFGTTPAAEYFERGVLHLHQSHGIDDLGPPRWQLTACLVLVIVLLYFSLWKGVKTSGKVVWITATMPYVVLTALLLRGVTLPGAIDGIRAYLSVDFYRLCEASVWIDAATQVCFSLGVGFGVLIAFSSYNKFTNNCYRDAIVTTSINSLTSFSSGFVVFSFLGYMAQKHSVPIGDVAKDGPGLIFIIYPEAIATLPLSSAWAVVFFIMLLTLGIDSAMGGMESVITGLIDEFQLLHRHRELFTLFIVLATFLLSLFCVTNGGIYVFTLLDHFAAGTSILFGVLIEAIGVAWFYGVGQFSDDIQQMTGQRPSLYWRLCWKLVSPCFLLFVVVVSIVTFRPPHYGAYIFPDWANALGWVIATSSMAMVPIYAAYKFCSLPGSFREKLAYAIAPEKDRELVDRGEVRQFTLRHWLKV

As to `CN[C@H](CC(C)C)C(=O)N[C@H]1C(=O)N[C@@H](CC(N)=O)C(=O)N[C@H]2C(=O)N[C@H]3C(=O)N[C@H](C(=O)N[C@H](C(=O)O)c4cc(O)cc(O)c4-c4cc3ccc4O)[C@H](O)c3ccc(c(Cl)c3)Oc3cc2cc(c3O[C@@H]2O[C@H](CO)[C@@H](O)[C@H](O)[C@H]2O[C@H]2C[C@](C)(N)[C@H](O)[C@H](C)O2)Oc2ccc(cc2Cl)[C@H]1O` [VANCOMYCIN], the IC50 entry in assay [1], in assay [2], in assay [3], in assay [4], in assay [5] and in [6] was “Not Active” in each case. Besides, the IC50 entry in assay [7], in assay [8], in [9], in assay [10], in assay [11] and in assay [12] was “Not Active” each time. In addition, the IC50 result in assay [13] and in assay [14] was “Not Active” throughout. Besides, the Ki result in assay [2], in [3], in assay [11] and in assay [12] was “Not Active” throughout.
Take `COc1ccc(C(CN(C)C)C2(O)CCCCC2)cc1` (centres undefined) [VENLAFAXINE]: the IC50 result in assay [1], in assay [2], in [3], in [4], in [5] and in assay [6] was “Not Active” throughout. The IC50 result in assay [7], in [8], in assay [9], in [10], in [11] and in assay [12] was “Not Active” each time. Besides, the IC50 result in assay [13] and in [14] was “Not Active” throughout. Also, the Ki entry in assay [2], in assay [3], in [11] and in assay [12] was “Not Active” throughout.
With IVERMECTIN, the pIC50 in [1] (read-out: IC50) is 5.41; in [9] (read-out: IC50), 5.35; in [10] (read-out: IC50), 6.43. In addition, the results for the pKi in assay [1] (read-out: Ki), in assay [9] (read-out: Ki) and in [10] (read-out: Ki) were 6.24, 5.45 and 6.67, respectively. Further, the IC50 entry in assay [2], in assay [3], in [4], in [5], in assay [6] and in [7] was “Not Active” in each case. Moreover, the IC50 entry in assay [8], in [11], in assay [12], in [13] and in [14] was “Not Active” in each case. Further, the Ki entry in [2], in assay [3], in assay [4], in assay [5], in assay [6] and in assay [7] was “Not Active” each time. Moreover, the Ki entry in [8], in assay [11], in assay [12], in assay [13] and in assay [14] was “Not Active” throughout.
